Assay results from ChEMBL document CHEMBL3045554, “Synthesis and antimicrobial screening of N-(1-methyl-1H-pyrazole-4-carbonyl)-thiourea derivatives” (2012).
In brackets after ≈: the same amount, converted by molar mass. Activity calls are given as the source filed them. The calls are words filed in the database; no cut-off is given here.

Key:
[1] = tested on: Escherichia coli; assay: Antimicrobial activity against Escherichia coli 637/2007 by microdilution method; type: functional
[2] = tested on: Bacillus subtilis; assay: Antimicrobial activity against Bacillus subtilis 10.10.2006 by microdilution method; type: functional
[3] = tested on: Klebsiella pneumoniae; assay: Antimicrobial activity against Klebsiella pneumoniae 126/2007 by microdilution method; type: functional
[4] = tested on: Staphylococcus aureus; assay: Antimicrobial activity against Staphylococcus aureus by microdilution method; type: functional
[5] = tested on: Pseudomonas aeruginosa; assay: Antimicrobial activity against Pseudomonas aeruginosa 5541 by microdilution method; type: functional
[6] = tested on: Enterococcus faecalis; assay: Antimicrobial activity against Enterococcus faecalis 13773 by microdilution method; type: functional
[7] = tested on: Acinetobacter baumannii; assay: Antimicrobial activity against Acinetobacter baumannii 15896 by microdilution method; type: functional
[8] = tested on: Acinetobacter baumannii; assay: Effect on amylase production in Acinetobacter baumannii 15896 after 24 hr by starch hydrolysis assay; type: functional, organism-based
[9] = tested on: Staphylococcus aureus; assay: Effect on lipase production in Staphylococcus aureus after 7 days; type: functional, organism-based
[10] = tested on: Acinetobacter baumannii; assay: Effect on lipase production in Acinetobacter baumannii 15896 after 7 days; type: functional, organism-based
[11] = tested on: Staphylococcus aureus; assay: Inhibition of lecithinase production in Staphylococcus aureus after 7 days; type: functional, organism-based
[12] = tested on: Pseudomonas aeruginosa; assay: Inhibition of caseinase production in Pseudomonas aeruginosa 5541 after 24 hr by casein hydrolysis assay; type: functional, organism-based
[13] = tested on: Bacillus subtilis; assay: Effect on gelatinase production in Bacillus subtilis 10.10.2006 after 24 hr by gelatin hydrolysis test; type: functional, organism-based
[14] = tested on: Acinetobacter baumannii; assay: Inhibition of lecithinase production in Acinetobacter baumannii 15896 after 7 days; type: functional, organism-based
[15] = tested on: Klebsiella pneumoniae; assay: Inhibition of lecithinase production in Klebsiella pneumoniae 126/2007 after 7 days; type: functional, organism-based
[16] = tested on: Escherichia coli; assay: Inhibition of caseinase production in Escherichia coli 637/2007 after 24 hr by casein hydrolysis assay; type: functional, organism-based
[17] = tested on: Bacillus subtilis; assay: Effect on esculethol production in Bacillus subtilis 10.10.2006 after 24 hr by esculin hydrolysis test; type: functional, organism-based
[18] = tested on: Escherichia coli; assay: Effect on DNase production in Escherichia coli 637/2007 after 24 hr; type: functional, organism-based
[19] = tested on: Bacillus subtilis; assay: Effect on DNase production in Bacillus subtilis 10.10.2006 after 24 hr; type: functional, organism-based
[20] = tested on: Enterococcus faecalis; assay: Inhibition of caseinase production in Enterococcus faecalis 13773 after 24 hr by casein hydrolysis assay; type: functional, organism-based
[21] = tested on: Escherichia coli; assay: Effect on gelatinase production in Escherichia coli 637/2007 after 24 hr by gelatin hydrolysis test; type: functional, organism-based
[22] = tested on: Bacillus subtilis; assay: Inhibition of lecithinase production in Bacillus subtilis 10.10.2006 after 7 days; type: functional, organism-based
[23] = tested on: Acinetobacter baumannii; assay: Effect on esculethol production in Acinetobacter baumannii 15896 after 24 hr by esculin hydrolysis test; type: functional, organism-based
[24] = tested on: Acinetobacter baumannii; assay: Effect on DNase production in Acinetobacter baumannii 15896 after 24 hr; type: functional, organism-based
[25] = tested on: Escherichia coli; assay: Inhibition of lecithinase production in Escherichia coli 637/2007 after 7 days; type: functional, organism-based
[26] = tested on: Pseudomonas aeruginosa; assay: Effect on amylase production in Pseudomonas aeruginosa 5541 after 24 hr by starch hydrolysis assay; type: functional, organism-based
[27] = tested on: Escherichia coli; assay: Effect on amylase production in Escherichia coli 637/2007 after 24 hr by starch hydrolysis assay; type: functional, organism-based
[28] = tested on: Escherichia coli; assay: Effect on esculethol production in Escherichia coli 637/2007 after 24 hr by esculin hydrolysis test; type: functional, organism-based
[29] = tested on: Enterococcus faecalis; assay: Inhibition of lecithinase production in Enterococcus faecalis 13773 after 7 days; type: functional, organism-based
[30] = tested on: Enterococcus faecalis; assay: Effect on DNase production in Enterococcus faecalis 13773 after 24 hr; type: functional, organism-based
[31] = tested on: Acinetobacter baumannii; assay: Effect on gelatinase production in Acinetobacter baumannii 15896 after 24 hr by gelatin hydrolysis test; type: functional, organism-based
[32] = tested on: Staphylococcus aureus; assay: Inhibition of caseinase production in Staphylococcus aureus after 24 hr by casein hydrolysis assay; type: functional, organism-based
[33] = tested on: Pseudomonas aeruginosa; assay: Effect on esculethol production in Pseudomonas aeruginosa 5541 after 24 hr by esculin hydrolysis test; type: functional, organism-based
[34] = tested on: Klebsiella pneumoniae; assay: Effect on esculethol production in Klebsiella pneumoniae 126/2007 after 24 hr by esculin hydrolysis test; type: functional, organism-based
[35] = tested on: Pseudomonas aeruginosa; assay: Effect on lipase production in Pseudomonas aeruginosa 5541 after 7 days; type: functional, organism-based
[36] = tested on: Escherichia coli; assay: Effect on lipase production in Escherichia coli 637/2007 after 7 days; type: functional, organism-based
[37] = tested on: Klebsiella pneumoniae; assay: Effect on DNase production in Klebsiella pneumoniae 126/2007 after 24 hr; type: functional, organism-based
[38] = tested on: Pseudomonas aeruginosa; assay: Inhibition of lecithinase production in Pseudomonas aeruginosa 5541 after 7 days; type: functional, organism-based
[39] = tested on: Klebsiella pneumoniae; assay: Inhibition of caseinase production in Klebsiella pneumoniae 126/2007 after 24 hr by casein hydrolysis assay; type: functional, organism-based
[40] = tested on: Staphylococcus aureus; assay: Effect on gelatinase production in Staphylococcus aureus after 24 hr by gelatin hydrolysis test; type: functional, organism-based
[41] = tested on: Acinetobacter baumannii; assay: Inhibition of caseinase production in Acinetobacter baumannii 15896 after 24 hr by casein hydrolysis assay; type: functional, organism-based
[42] = tested on: Pseudomonas aeruginosa; assay: Effect on gelatinase production in Pseudomonas aeruginosa 5541 after 24 hr by gelatin hydrolysis test; type: functional, organism-based
[43] = tested on: Pseudomonas aeruginosa; assay: Effect on DNase production in Pseudomonas aeruginosa 5541 after 24 hr; type: functional, organism-based
[44] = tested on: Enterococcus faecalis; assay: Effect on amylase production in Enterococcus faecalis 13773 after 24 hr by starch hydrolysis assay; type: functional, organism-based
[45] = tested on: Staphylococcus aureus; assay: Effect on esculethol production in Staphylococcus aureus after 24 hr by esculin hydrolysis test; type: functional, organism-based
[46] = tested on: Klebsiella pneumoniae; assay: Effect on gelatinase production in Klebsiella pneumoniae 126/2007 after 24 hr by gelatin hydrolysis test; type: functional, organism-based
[47] = tested on: Staphylococcus aureus; assay: Effect on DNase production in Staphylococcus aureus after 24 hr; type: functional, organism-based
[48] = tested on: Klebsiella pneumoniae; assay: Effect on lipase production in Klebsiella pneumoniae 126/2007 after 7 days; type: functional, organism-based
[49] = tested on: Bacillus subtilis; assay: Effect on lipase production in Bacillus subtilis 10.10.2006 after 7 days; type: functional, organism-based
[50] = tested on: Enterococcus faecalis; assay: Effect on lipase production in Enterococcus faecalis 13773 after 7 days; type: functional, organism-based
[51] = tested on: Staphylococcus aureus; assay: Effect on amylase production in Staphylococcus aureus after 24 hr by starch hydrolysis assay; type: functional, organism-based
[52] = tested on: Enterococcus faecalis; assay: Effect on gelatinase production in Enterococcus faecalis 13773 after 24 hr by gelatin hydrolysis test; type: functional, organism-based
[53] = tested on: Bacillus subtilis; assay: Effect on amylase production in Bacillus subtilis 10.10.2006 after 24 hr by starch hydrolysis assay; type: functional, organism-based
[54] = tested on: Klebsiella pneumoniae; assay: Effect on amylase production in Klebsiella pneumoniae 126/2007 after 24 hr by starch hydrolysis assay; type: functional, organism-based
[55] = tested on: Bacillus subtilis; assay: Inhibition of caseinase production in Bacillus subtilis 10.10.2006 after 24 hr by casein hydrolysis assay; type: functional, organism-based
[56] = tested on: Enterococcus faecalis; assay: Effect on esculethol production in Enterococcus faecalis 13773 after 24 hr by esculin hydrolysis test; type: functional, organism-based

## Cn1cc(C(=O)NC(=S)Nc2ccc(C(C)(C)C)cc2)cn1
[1]
  MIC: > 1000 µg/mL
[2]
  MIC: > 1000 µg/mL
[3]
  MIC: > 1000 µg/mL
[4]
  MIC: > 1000 µg/mL
[5]
  MIC: > 1000 µg/mL
[6]
  MIC: > 1000 µg/mL
[7]
  MIC: > 1000 µg/mL

## CCC(C)c1ccccc1NC(=S)NC(=O)c1cnn(C)c1 (stereo not drawn)
[1]
  MIC: > 1000 µg/mL
[2]
  MIC: > 1000 µg/mL
[3]
  MIC: > 1000 µg/mL
[4]
  MIC: > 1000 µg/mL
[5]
  MIC: > 1000 µg/mL
[6]
  MIC: > 1000 µg/mL
[7]
  MIC: > 1000 µg/mL

## CCc1ccccc1NC(=S)NC(=O)c1cnn(C)c1
[8]
  Activity: inactive
[9]
  Activity: inactive
[10]
  Activity: inactive
[11]
  inhibition: inactive
[12]
  inhibition: inactive
[13]
  Activity: inactive
[14]
  inhibition: inactive
[15]
  inhibition: Active
[16]
  inhibition: inactive
[17]
  Activity: inactive
[18]
  Activity: inactive
[19]
  Activity: inactive
[20]
  inhibition: inactive
[21]
  Activity: inactive
[22]
  inhibition: inactive
[23]
  Activity: inactive
[1]
  MIC: > 1000 µg/mL
[24]
  Activity: inactive
[25]
  inhibition: inactive
[26]
  Activity: inactive
[27]
  Activity: inactive
[28]
  Activity: inactive
[29]
  inhibition: inactive
[2]
  MIC: 1000 µg/mL (≈ 3.47 mM)
[30]
  Activity: inactive
[31]
  Activity: inactive
[32]
  inhibition: inactive
[33]
  Activity: inactive
[3]
  MIC: 1000 µg/mL (≈ 3.47 mM)
[34]
  Activity: inactive
[35]
  Activity: inactive
[36]
  Activity: inactive
[4]
  MIC: 250 µg/mL (≈ 0.867 mM)
[37]
  Activity: inactive
[5]
  MIC: 500 µg/mL (≈ 1.73 mM)
[38]
  inhibition: inactive
[39]
  inhibition: inactive
[40]
  Activity: inactive
[41]
  inhibition: inactive
[42]
  Activity: inactive
[43]
  Activity: inactive
[44]
  Activity: inactive
[45]
  Activity: inactive
[46]
  Activity: inactive
[6]
  MIC: > 1000 µg/mL
[47]
  Activity: inactive
[48]
  Activity: inactive
[49]
  Activity: inactive
[50]
  Activity: inactive
[51]
  Activity: inactive
[7]
  MIC: 250 µg/mL (≈ 0.867 mM)
[52]
  Activity: inactive
[53]
  Activity: inactive
[54]
  Activity: inactive
[55]
  inhibition: inactive
[56]
  Activity: inactive

## Cc1ccccc1NC(=S)NC(=O)c1cnn(C)c1
[1]
  MIC: > 1000 µg/mL
[2]
  MIC: > 1000 µg/mL
[3]
  MIC: > 1000 µg/mL
[4]
  MIC: > 1000 µg/mL
[5]
  MIC: > 1000 µg/mL
[6]
  MIC: > 1000 µg/mL
[7]
  MIC: > 1000 µg/mL

## CCCc1ccc(NC(=S)NC(=O)c2cnn(C)c2)cc1
[1]
  MIC: > 1000 µg/mL
[2]
  MIC: > 1000 µg/mL
[3]
  MIC: > 1000 µg/mL
[4]
  MIC: > 1000 µg/mL
[5]
  MIC: > 1000 µg/mL
[6]
  MIC: > 1000 µg/mL
[7]
  MIC: > 1000 µg/mL

## CCc1ccc(NC(=S)NC(=O)c2cnn(C)c2)cc1
[1]
  MIC: > 1000 µg/mL
[2]
  MIC: > 1000 µg/mL
[3]
  MIC: > 1000 µg/mL
[4]
  MIC: > 1000 µg/mL
[5]
  MIC: > 1000 µg/mL
[6]
  MIC: > 1000 µg/mL
[7]
  MIC: > 1000 µg/mL

## Cc1cccc(NC(=S)NC(=O)c2cnn(C)c2)c1
[1]
  MIC: > 1000 µg/mL
[2]
  MIC: 1000 µg/mL (≈ 3.64 mM)
[3]
  MIC: 1000 µg/mL (≈ 3.64 mM)
[4]
  MIC: > 1000 µg/mL
[5]
  MIC: > 1000 µg/mL
[6]
  MIC: > 1000 µg/mL
[7]
  MIC: > 1000 µg/mL
